According to US6737383B1, “Herbicidal oxadiazolidines” (priority 1999, dated 2004):

Columns and labels:
soybean = experiment: Test B pre/postemergence soybean; format: in vivo, Glycine max
Procedure, shortened: (§1)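 Test chemicals in a non-phytotoxic solvent mixture with surfactant were sprayed preemergence onto planted seeds and postemergence onto plants 2 to 18 cm tall (1- to 4-leaf stage). After twelve to sixteen days in a greenhouse, injury was visually rated against untreated controls from 0 (no effect) to 10 (complete control).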

wild oat = experiment: Test B pre/postemergence wild oat; format: in vivo, Avena fatua
Procedure, shortened: as §1

purple nutsedge = experiment: Test B pre/postemergence purple nutsedge; format: in vivo, Cyperus rotundus
Procedure, shortened: as §1

rape = experiment: Test B pre/postemergence rape; format: in vivo, Brassica napus
Procedure, shortened: as §1

giant foxtail = experiment: Test B pre/postemergence giant foxtail; format: in vivo, Setaria faberii
Procedure, shortened: as §1

pigweed = experiment: Test B pre/postemergence pigweed; format: in vivo, Amaranthus retroflexus
Procedure, shortened: as §1

surinam grass = experiment: Test B pre/postemergence surinam grass; format: in vivo, Brachiaria decumbens
Procedure, shortened: as §1

morningglory = experiment: Test B pre/postemergence morningglory; format: in vivo, Ipomoea hederacea
Procedure, shortened: as §1

duck salad = experiment: Test B flood test duck salad; format: in vivo, Heteranthera limosa
Procedure, shortened: (§2)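 Read-out is a visual response score from 0 (no effect) to 10 (complete control), assigned by comparison with untreated controls. Treatment was applied at the 2-leaf stage, and plants stayed in the greenhouse for twelve to sixteen days before scoring.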

velvetleaf = experiment: Test B pre/postemergence velvetleaf; format: in vivo, Abutilon theophrasti
Procedure, shortened: as §1

blackgrass = experiment: Test B pre/postemergence blackgrass; format: in vivo, Alopecurus myosuroides
Procedure, shortened: as §1

bamyardgrass = experiment: Test B flood test barnyardgrass; format: in vivo, Echinochloa crus-galli
Procedure, shortened: as §2

wheat = experiment: Test B pre/postemergence wheat; format: in vivo, Triticum aestivum
Procedure, shortened: as §1

smallflower flatsedge = experiment: Test B flood test smallflower flatsedge; format: in vivo, Cyperus difformis
Procedure, shortened: as §2

cocklebur = experiment: Test B pre/postemergence cocklebur; format: in vivo, Xanthium strumarium
Procedure, shortened: as §1

bedstraw = experiment: Test B pre/postemergence bedstraw; format: in vivo, Galium aparine
Procedure, shortened: as §1

[1] = Postemergence, Rate 250 g/ha, scale 0 to 10
[2] = Postemergence, Rate 500 g/ha, scale of 0 to 10 where 0 is no effect and 10 is complete control
[3] = Postemergence, Rate 1000 g/ha, scale 0 to 10 (0 no effect, 10 complete control)
[4] = Preemergence, Rate 125 g/ha, scale of 0 to 10 where 0 is no effect and 10 is complete control
[5] = Preemergence, Rate 250 g/ha, scale 0 to 10, 0 is no effect, 10 is complete control
[6] = Preemergence, Rate 500 g/ha, scale 0 to 10, 0 is no effect, 10 is complete control
[7] = Rate 125 g/ha, Postemergence, scale 0 to 10, 0 is no effect, 10 is complete control
[8] = Rate 1000 g/ha, Preemergence, scale 0 to 10 (0 no effect, 10 complete control)
[9] = Pre-emergence, Rate 1000 g/ha, scale 0 to 10 (0 no effect, 10 complete control)
[10] = Rate 125 g/ha, under heading Pre-emergence, flood test species, visual evaluation after twelve to sixteen days
[11] = Rate 250 g/ha, Pre-emergence (flood test species), scale 0 to 10, 0 is no effect, 10 is complete control
[12] = Rate 500 g/ha, Pre-emergence, flood test species, scale 0 to 10 (0 no effect, 10 complete control)

With `CCOP(=O)(OCC)C(C)n1c(=O)on(C(=O)N(c2ccccc2)C(C)C)c1=O` (stereo not shown) [Compound 448] as the compound, how does the “Soybean plant response rating” value (soybean; [1]) read?
The value was 2.

And the “Soybean plant response rating” value (soybean; [2])?
Its value is 5.

What about the “Soybean plant response rating” value (soybean; [3]) of the same compound?
Its value is 6.

What about the “Plant response rating, Soybean” value (soybean; [4]) of the same compound?
The value was 0.

And the “Soybean plant response rating” value (soybean; [5])?
The value was 0.

And the “Soybean plant response rating” value (soybean; [6])?
The value was 0.

What about the “Soybean plant response rating” value (soybean; [7]) of the same compound?
The value was 1.

And the “Plant response rating, Soybean” value (soybean; [8])?
Its value is 0.

And the “Wild oats plant response rating” value (wild oat; [1])?
Its value is 0.

What about the “Wild oats plant response rating” value (wild oat; [2]) of the same compound?
The value was 0.

What about the “Wild oats plant response rating” value (wild oat; [3]) of the same compound?
Its value is 4.

And the “Plant response rating, Wild oats” value (wild oat; [4])?
Its value is 0.

And the “Wild oats plant response rating” value (wild oat; [5])?
The value was 0.

What about the “Wild oats plant response rating” value (wild oat; [6]) of the same compound?
The value was 0.

What about the “Wild oats plant response rating” value (wild oat; [7]) of the same compound?
Its value is 0.

And the “Plant response rating, Wild oats” value (wild oat; [8])?
The value was 5.

And the “Nutsedge plant response rating” value (purple nutsedge; [1])?
Its value is 0.

And the “Nutsedge plant response rating” value (purple nutsedge; [2])?
The value was 0.

And the “Nutsedge plant response rating” value (purple nutsedge; [3])?
The value was 0.

What about the “Plant response rating, Nutsedge” value (purple nutsedge; [4]) of the same compound?
The value was 0.

What about the “Nutsedge plant response rating” value (purple nutsedge; [5]) of the same compound?
The value was 0.

What about the “Nutsedge plant response rating” value (purple nutsedge; [6]) of the same compound?
Its value is 0.

What about the “Nutsedge plant response rating” value (purple nutsedge; [7]) of the same compound?
Its value is 0.

And the “Plant response rating, Nutsedge” value (purple nutsedge; [8])?
The value was 0.

What about the “Rape plant response rating” value (rape; [1]) of the same compound?
The value was 0.

What about the “Rape plant response rating” value (rape; [2]) of the same compound?
The value was 0.

What about the “Rape plant response rating” value (rape; [3]) of the same compound?
Its value is 0.

And the “Plant response rating, Rape” value (rape; [4])?
The value was 0.

And the “Rape plant response rating” value (rape; [5])?
The value was 0.

What about the “Rape plant response rating” value (rape; [6]) of the same compound?
The value was 0.

And the “Rape plant response rating” value (rape; [7])?
Its value is 0.

What about the “Plant response rating, Rape” value (rape; [8]) of the same compound?
The value was 0.

And the “Giant foxtail plant response rating” value (giant foxtail; [1])?
Its value is 0.

What about the “Giant foxtail plant response rating” value (giant foxtail; [2]) of the same compound?
Its value is 0.

What about the “Giant foxtail plant response rating” value (giant foxtail; [3]) of the same compound?
Its value is 0.

What about the “Plant response rating, Giant foxtail” value (giant foxtail; [4]) of the same compound?
Its value is 2.

And the “Giant foxtail plant response rating” value (giant foxtail; [5])?
Its value is 3.

And the “Giant foxtail plant response rating” value (giant foxtail; [6])?
Its value is 9.

And the “Giant foxtail plant response rating” value (giant foxtail; [7])?
The value was 0.

And the “Plant response rating, Giant foxtail” value (giant foxtail; [8])?
The value was 9.

And the “Redroot pigweed plant response rating” value (pigweed; [1])?
Its value is 0.

What about the “Redroot pigweed plant response rating” value (pigweed; [2]) of the same compound?
The value was 0.

What about the “Redroot pigweed plant response rating” value (pigweed; [3]) of the same compound?
Its value is 0.

And the “Plant response rating, Redroot pigweed” value (pigweed; [4])?
Its value is 0.

What about the “Redroot pigweed plant response rating” value (pigweed; [5]) of the same compound?
Its value is 0.

And the “Redroot pigweed plant response rating” value (pigweed; [6])?
Its value is 0.

What about the “Redroot pigweed plant response rating” value (pigweed; [7]) of the same compound?
The value was 0.

And the “Plant response rating, Redroot pigweed” value (pigweed; [8])?
The value was 0.

What about the “B. signalgrass plant response rating” value (surinam grass; Postemergence, Rate 250 g/ha, scale 0 to 10, 0 no effect, 10 complete control) of the same compound?
Its value is 0.

What about the “B. signalgrass plant response rating” value (surinam grass; [2]) of the same compound?
Its value is 0.

What about the “B. signalgrass plant response rating” value (surinam grass; [3]) of the same compound?
The value was 0.

What about the “Plant response rating, B. signalgrass” value (surinam grass; [4]) of the same compound?
Its value is 0.

What about the “B. signalgrass plant response rating” value (surinam grass; [5]) of the same compound?
Its value is 0.

And the “B. signalgrass plant response rating” value (surinam grass; [6])?
Its value is 2.

And the “B. signalgrass plant response rating” value (surinam grass; [7])?
The value was 0.

What about the “Plant response rating, B. signalgrass” value (surinam grass; [8]) of the same compound?
The value was 4.

What about the “Morningglory plant response rating” value (morningglory; [1]) of the same compound?
The value was 2.

And the “Morningglory plant response rating” value (morningglory; [2])?
The value was 5.

What about the “Morningglory plant response rating” value (morningglory; [3]) of the same compound?
The value was 8.

What about the “Plant response rating, Morningglory” value (morningglory; [4]) of the same compound?
The value was 0.

What about the “Morningglory plant response rating” value (morningglory; [5]) of the same compound?
The value was 0.

What about the “Morningglory plant response rating” value (morningglory; [6]) of the same compound?
Its value is 0.

And the “Morningglory plant response rating” value (morningglory; [7])?
The value was 0.

What about the “Plant response rating, Morningglory” value (morningglory; [8]) of the same compound?
Its value is 0.

And the “Ducksalad plant response rating” value (duck salad; [9])?
Its value is 0.

And the “Ducksalad plant response rating (0 to 10 scale, 0 is no effect, 10 is complete control)” value (duck salad; [10])?
Its value is 0.

And the “Ducksalad plant response rating” value (duck salad; [11])?
Its value is 0.

And the “Ducksalad plant response rating” value (duck salad; [12])?
Its value is 0.

And the “Velvetleaf plant response rating” value (velvetleaf; [1])?
Its value is 0.

What about the “Velvetleaf plant response rating” value (velvetleaf; [2]) of the same compound?
Its value is 0.

What about the “Velvetleaf plant response rating” value (velvetleaf; [3]) of the same compound?
Its value is 2.

And the “Plant response rating, Velvetleaf” value (velvetleaf; [4])?
The value was 0.

And the “Velvetleaf plant response rating” value (velvetleaf; [5])?
Its value is 0.

And the “Velvetleaf plant response rating” value (velvetleaf; [6])?
Its value is 0.

And the “Velvetleaf plant response rating” value (velvetleaf; [7])?
The value was 0.

And the “Plant response rating, Velvetleaf” value (velvetleaf; [8])?
Its value is 0.

And the “Blackgrass plant response rating” value (blackgrass; [1])?
Its value is 0.

What about the “Blackgrass plant response rating” value (blackgrass; [2]) of the same compound?
The value was 0.

What about the “Blackgrass plant response rating” value (blackgrass; [3]) of the same compound?
The value was 2.

And the “Plant response rating, Blackgrass” value (blackgrass; [4])?
The value was 0.

What about the “Blackgrass plant response rating” value (blackgrass; [5]) of the same compound?
The value was 0.

And the “Blackgrass plant response rating” value (blackgrass; [6])?
Its value is 2.

And the “Blackgrass plant response rating” value (blackgrass; [7])?
The value was 0.

What about the “Plant response rating, Blackgrass” value (blackgrass; [8]) of the same compound?
The value was 4.

What about the “Barnyardgrass plant response rating” value (bamyardgrass; [9]) of the same compound?
The value was 0.

What about the “Barnyardgrass plant response rating (0 to 10 scale, 0 is no effect, 10 is complete control)” value (bamyardgrass; [10]) of the same compound?
The value was 0.

And the “Barnyardgrass plant response rating” value (bamyardgrass; [11])?
The value was 0.

What about the “Barnyardgrass plant response rating” value (bamyardgrass; [12]) of the same compound?
The value was 0.

And the “Wheat plant response rating” value (wheat; [1])?
The value was 0.

And the “Wheat plant response rating” value (wheat; [2])?
The value was 0.

And the “Wheat plant response rating” value (wheat; [3])?
Its value is 0.

What about the “Plant response rating, Wheat” value (wheat; [4]) of the same compound?
Its value is 0.

What about the “Wheat plant response rating” value (wheat; [5]) of the same compound?
Its value is 0.

And the “Wheat plant response rating” value (wheat; [6])?
Its value is 0.

And the “Wheat plant response rating” value (wheat; [7])?
The value was 0.

And the “Plant response rating, Wheat” value (wheat; [8])?
Its value is 0.

And the “S. Flatsedge plant response rating” value (smallflower flatsedge; [9])?
Its value is 0.

What about the “S. Flatsedge plant response rating (0 to 10 scale, 0 is no effect, 10 is complete control)” value (smallflower flatsedge; [10]) of the same compound?
The value was 0.

And the “S. Flatsedge plant response rating” value (smallflower flatsedge; [11])?
Its value is 0.

What about the “S. Flatsedge plant response rating” value (smallflower flatsedge; [12]) of the same compound?
Its value is 0.

And the “Cocklebur plant response rating” value (cocklebur; [1])?
Its value is 0.

And the “Cocklebur plant response rating” value (cocklebur; [2])?
The value was 0.

What about the “Cocklebur plant response rating” value (cocklebur; [3]) of the same compound?
Its value is 0.

And the “Plant response rating, Cocklebur” value (cocklebur; [4])?
Its value is 0.

And the “Cocklebur plant response rating” value (cocklebur; [5])?
The value was 0.

And the “Cocklebur plant response rating” value (cocklebur; [7])?
The value was 0.

And the “Bedstraw plant response rating” value (bedstraw; [1])?
The value was 0.

And the “Plant response rating, Bedstraw” value (bedstraw; [4])?
Its value is 0.

And the “Bedstraw plant response rating” value (bedstraw; [5])?
The value was 0.

And the “Bedstraw plant response rating” value (bedstraw; [6])?
The value was 0.

And the “Bedstraw plant response rating” value (bedstraw; [7])?
The value was 0.

And the “Plant response rating, Bedstraw” value (bedstraw; [8])?
Its value is 0.
